According to ChEMBL document CHEMBL3046759, “Seed and leaf treatments with natural compounds to induce resistance against Peronospora parasitica in Brassica oleracea” (2012):
Active and inactive are the calls of the source. The calls are words filed in the database; no cut-off is given here.

Key:
[1] = tested on: Hyaloperonospora parasitica; experiment: Induction of systemic acquired resistance against Hyaloperonospora parasitica-induced downy mildew disease in white cabbage assessed as infected leaf area sprayed on leaves of one week old seedlings relative to untreated control; assay type: functional
[2] = tested on: Hyaloperonospora parasitica; experiment: Induction of systemic acquired resistance against Hyaloperonospora parasitica-induced downy mildew disease in white cabbage assessed as infected leaf area at 1 mM sprayed on leaves of one week old seedlings relative to untreated control; assay type: functional, organism-based
Brassica oleracea [3] = experiment: Induction of systemic acquired resistance in Brassica oleracea (white cabbage) plants assessed as increase in glucanase activity at 10 mM sprayed on seeds by colorimetric assay; assay type: functional, organism-based
Brassica oleracea [4] = experiment: Induction of systemic acquired resistance in Brassica oleracea (white cabbage) plants assessed as increase in chitinase activity at 10 mM sprayed on seeds by colorimetric assay; assay type: functional, organism-based
Brassica oleracea [5] = experiment: Induction of systemic acquired resistance in Brassica oleracea (white cabbage) plants assessed as increase in glucanase activity at 10 mM sprayed on leaves of 3 weeks old seedlings by colorimetric assay; assay type: functional, organism-based
Brassica oleracea [6] = experiment: Induction of systemic acquired resistance in Brassica oleracea (white cabbage) plants assessed as increase in chitinase activity at 10 mM sprayed on leaves of 3 weeks old seedlings by colorimetric assay; assay type: functional, organism-based
Brassica oleracea [7] = experiment: Induction of systemic acquired resistance in Brassica oleracea (white cabbage) plants assessed as increase in glucanase activity at 1 mM sprayed on seeds by colorimetric assay; assay type: functional, organism-based
Brassica oleracea [8] = experiment: Induction of systemic acquired resistance in Brassica oleracea (white cabbage) plants assessed as increase in glucanase activity at 1 mM sprayed on leaves of 3 weeks old seedlings by colorimetric assay; assay type: functional, organism-based
Brassica oleracea [9] = experiment: Induction of systemic acquired resistance in Brassica oleracea (white cabbage) plants assessed as increase in chitinase activity at 1 mM sprayed on seeds by colorimetric assay; assay type: functional, organism-based
Brassica oleracea [10] = experiment: Induction of systemic acquired resistance in Brassica oleracea (white cabbage) plants assessed as increase in chitinase activity at 1 mM sprayed on leaves of 3 weeks old seedlings by colorimetric assay; assay type: functional, organism-based
[11] = tested on: Hyaloperonospora parasitica; experiment: Induction of systemic acquired resistance against Hyaloperonospora parasitica-induced downy mildew disease in white cabbage assessed as disease index at 1 mM sprayed on leaves exposed to compound for 2 to 48 hr measured 10 days after planting; assay type: functional, organism-based; details: TDE = time-dependent effect
Brassica oleracea [12] = experiment: Induction of systemic acquired resistance in Brassica oleracea (white cabbage) plants assessed as increase in chitinase activity at 1 mM sprayed on leaves exposed to compound for 2 to 48 hr measured 10 days after planting by colorimetric assay; assay type: functional, organism-based; details: TDE = time-dependent effect
Brassica oleracea [13] = experiment: Induction of systemic acquired resistance in Brassica oleracea (white cabbage) plants assessed as increase in glucanase activity at 1 mM sprayed on leaves exposed to compound for 2 to 48 hr measured 10 days after planting by colorimetric assay; assay type: functional, organism-based; details: TDE = time-dependent effect

**Q.** `CCCOC(=O)NCCCN(C)C.Cl` [PROPAMOCARB HYDROCHLORIDE] was tested. Which Activity [1] did it give?
**A.** Its Activity is 56.4%.

**Q.** With CUPRIC SULFATE as the compound, how does the Activity [2] read?
**A.** Its Activity is 0.01%.

**Q.** MANGANESE CHLORIDE ANHYDROUS was tested. Which Activity (Brassica oleracea [3]) did it give?
**A.** Its Activity is “inactive”.

**Q.** And the Activity (Brassica oleracea [4])?
**A.** Its Activity is “inactive”.

**Q.** And the Activity (Brassica oleracea [5])?
**A.** The Activity was “Active”.

**Q.** And the Activity (Brassica oleracea [6])?
**A.** Its Activity is “Active”.

**Q.** Which Activity (Brassica oleracea [7]) does the source give for `O=C(O)c1cc(Cl)nc(Cl)c1` here?
**A.** Its Activity is “Active”.

**Q.** What about the Activity (Brassica oleracea [8]) of the same compound?
**A.** The Activity was “Active”.

**Q.** And the Activity (Brassica oleracea [9])?
**A.** The Activity was “Active”.

**Q.** What about the Activity (Brassica oleracea [10]) of the same compound?
**A.** Its Activity is “Active”.

**Q.** What about the Activity [11] of the same compound?
**A.** The Activity was “tde”.

**Q.** And the Activity (Brassica oleracea [12])?
**A.** Its Activity is “tde”.

**Q.** And the Activity (Brassica oleracea [13])?
**A.** Its Activity is “tde”.
